Measured values from patent publication US10233173B2, “Substituted 1,2,3-triazoles as NR2B-selective NMDA modulators” (JANSSEN PHARMACEUTICA NV, priority 2016, dated 2019).

biological target: human GluN1/GluN2B NMDA receptors (Homo sapiens, UniProt Q05586+Q13224); assay: Cell-based calcium flux (FLIPR) assay on cloned human NR1/NR2B ion channels expressed in mammalian cells; conditions: standard assay; human GluN1/GluN2B, calcium flux (FLIPR), glutamate ~EC80
Method: Effects of Test Articles on Cloned Human NR1/NR2B Ion Channels Expressed in Mammalian Cells
NMDA receptors are ion channels that are highly permeable to Ca^2+ ions, rendering it possible to monitor NMDA receptor function using cell-based calcium flux assay. In this assay, co-agonists glutamate and glycine are added to cells heterologously expressing human GluN1/GluN2B NMDA receptors to initiate cellular Ca^2+ influx. The time course of the changes in intracellular calcium is measured using a fluorescent dye and a FLIPR (Fluorometric Imaging Plate Reader) device.
Twenty four hours before measurements, the expression of the NMDA receptors in the stable cell line is induced with Tet-On inducible system in the presence of a non-selective NMDA receptor blocker. On the day of the experiment, cell culture media is carefully washed and the cells are loaded with Calcium 5 Dye Kit (Molecular Devices) in dye loading buffer containing 149 mM NaCl, 4 mM KCl, 2 mM CaCl2, and 1.5 mM MgCl2, 10 mM HEPES and 5 mM D-glucose; pH 7.4. After 1 h incubation at the room temperature, the dye is washed away with the assay buffer (149 mM NaCl (standard assay) or 150 mM (HTS assay), 4 mM KCl (standard assay) or 3 mM (HTS assay), 2 mM CaCl2, 0.01 mM EDTA, 10 mM HEPES and 5 mM D-glucose; pH 7.4) In the FLIPR TETRA reader, various concentrations of the test compounds are added to the cells for 5 min while fluorescence is monitored to detect potential agonist activity. Next, co-agonists, glutamate and glycine are added for another 5 minutes. The concentration of glutamate corresponding to ˜EC80 (standard assay) or EC40 (HTS assay) is used to maximize the assay's signal window or the ability to detect NMDA receptor antagonists and negative allosteric modulators, respectively. A saturating concentration (10 μM) of glycine is also present in the assay. […] The fluorescent signal in the presence of test compounds is quantified and normalized to the signal defined by the appropriate control wells.

Chain of human GluN1/GluN2B NMDA receptors (Q13224 27-1484, other chains not shown): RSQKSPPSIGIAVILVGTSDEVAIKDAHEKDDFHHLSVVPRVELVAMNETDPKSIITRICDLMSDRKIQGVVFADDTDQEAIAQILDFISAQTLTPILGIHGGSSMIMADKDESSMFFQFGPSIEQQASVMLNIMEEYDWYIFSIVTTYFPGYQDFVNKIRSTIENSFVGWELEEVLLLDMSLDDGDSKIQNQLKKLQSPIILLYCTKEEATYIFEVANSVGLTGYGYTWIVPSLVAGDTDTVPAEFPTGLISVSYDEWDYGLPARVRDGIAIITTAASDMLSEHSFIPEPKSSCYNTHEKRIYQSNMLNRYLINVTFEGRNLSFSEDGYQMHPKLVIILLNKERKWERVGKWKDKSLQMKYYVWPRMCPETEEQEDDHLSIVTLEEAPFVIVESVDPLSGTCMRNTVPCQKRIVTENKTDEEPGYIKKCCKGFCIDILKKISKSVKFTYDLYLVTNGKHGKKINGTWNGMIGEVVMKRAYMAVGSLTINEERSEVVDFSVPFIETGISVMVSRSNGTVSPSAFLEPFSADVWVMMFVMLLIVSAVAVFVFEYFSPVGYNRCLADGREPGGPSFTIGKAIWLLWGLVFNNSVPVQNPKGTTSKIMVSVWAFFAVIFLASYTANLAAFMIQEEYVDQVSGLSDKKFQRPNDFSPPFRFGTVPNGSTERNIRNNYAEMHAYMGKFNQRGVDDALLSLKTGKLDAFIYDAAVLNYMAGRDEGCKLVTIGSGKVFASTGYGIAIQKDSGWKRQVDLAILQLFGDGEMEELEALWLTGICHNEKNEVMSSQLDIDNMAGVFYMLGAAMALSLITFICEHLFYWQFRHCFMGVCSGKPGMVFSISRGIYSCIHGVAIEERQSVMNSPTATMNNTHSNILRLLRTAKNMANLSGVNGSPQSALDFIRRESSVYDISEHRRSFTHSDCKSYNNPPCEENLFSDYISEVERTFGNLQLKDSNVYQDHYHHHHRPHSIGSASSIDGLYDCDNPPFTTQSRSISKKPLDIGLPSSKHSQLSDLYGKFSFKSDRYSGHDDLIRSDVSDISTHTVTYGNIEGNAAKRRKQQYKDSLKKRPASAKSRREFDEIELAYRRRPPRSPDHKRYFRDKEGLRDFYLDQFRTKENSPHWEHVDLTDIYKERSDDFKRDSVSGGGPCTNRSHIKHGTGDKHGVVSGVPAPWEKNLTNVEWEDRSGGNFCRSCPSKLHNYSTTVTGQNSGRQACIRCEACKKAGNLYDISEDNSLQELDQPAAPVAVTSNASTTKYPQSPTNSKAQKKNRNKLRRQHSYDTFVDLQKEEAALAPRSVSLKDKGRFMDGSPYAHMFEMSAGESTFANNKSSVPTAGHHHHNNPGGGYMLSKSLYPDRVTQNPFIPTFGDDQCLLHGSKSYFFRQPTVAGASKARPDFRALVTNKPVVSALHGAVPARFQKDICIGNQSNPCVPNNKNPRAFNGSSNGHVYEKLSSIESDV

| Structure (SMILES) | IC50 [µM] |
| --- | --- |
| Cc1cnc(OCc2cn(-c3ccc(F)c(Br)c3)nn2)nc1 [Example 16, 2-[[1-(3-Bromo-4-fluoro-phenyl)triazol-4-yl]methoxy]-5-methylpyrimidine] | 0.001 |
| Cc1ccnc(OCc2cn(-c3ccc(F)c(Br)c3)nn2)n1 [Example 17, 2-[[1-(3-Bromo-4-fluoro-phenyl)triazol-4-yl]methoxy]-4-methylpyrimidine] | 0.01 |
| Cc1cc(C)nc(OCc2cn(-c3ccc(F)c(Br)c3)nn2)n1 [Example 18, 2-[[1-(3-Bromo-4-fluoro-phenyl)triazol-4-yl]methoxy]-4,6-dimethyl-pyrimidine] | 0.082 |
| Fc1cnc(OCc2cn(-c3ccc(F)c(Br)c3)nn2)nc1 [Example 19, 2-[[1-(3-Bromo-4-fluoro-phenyl)triazol-4-yl]methoxy]-5-fluoropyrimidine] | 0.056 |
| COc1cc(-n2cc(COc3ncccn3)nn2)ccc1F [Example 20, 2-[[1-(4-Fluoro-3-methoxy-phenyl)triazol-4-yl]methoxy]pyrimidine] | 1 |
| Cc1ccnc(OCc2cn(-c3ccc(Cl)c(OC(F)F)c3)nn2)n1 [Example 21, 2-[[1-[4-Chloro-3-(difluoromethoxy)phenyl]triazol-4-yl]methoxy]-4-methyl-pyrimidine] | 0.002 |
| Cc1cnc(OCc2cn(-c3ccc(Cl)c(OC(F)F)c3)nn2)nc1 [Example 22, 2-[[1-[4-Chloro-3-(difluoromethoxy)phenyl]triazol-4-yl]methoxy]-5-methyl-pyrimidine] | 0.002 |
| FC(F)Oc1cc(-n2cc(COc3cnccn3)nn2)ccc1Cl [Example 23, 2-[[1-[4-Chloro-3-(difluoromethoxy)phenyl]triazol-4-yl]methoxy]pyrazine] | 0.456 |
| Fc1ccc(-n2cc(CNc3ncccn3)nn2)cc1C(F)F [Example 24, N-[[1-[3-(Difluoromethyl)-4-fluoro-phenyl]triazol-4-yl]methyl]pyrimidin-2-amine] | 0.824 |
| Fc1ccc(-n2cc(COc3ncccn3)nn2)cc1C(F)F [Example 25, 2-((1-(3-(difluoromethyl)-4-fluorophenyl)-1H-1,2,3-triazol-4-yl)methoxy)pyrimidine] | 0.05 |
| COc1cnc(OCc2cn(-c3ccc(Cl)c(OC(F)F)c3)nn2)nc1 [Example 26, 2-[[1-[4-Chloro-3-(difluoromethoxy)phenyl]triazol-4-yl]methoxy]-5-methoxy-pyrimidine] | 0.003 |
| CCc1cnc(OCc2cn(-c3ccc(Cl)c(OC(F)F)c3)nn2)nc1 [Example 27, 2-[[1-[4-Chloro-3-(difluoromethoxy)phenyl]triazol-4-yl]methoxy]-5-ethyl-pyrimidine] | 0.009 |
| FC(F)Oc1cc(-n2cc(COc3ncc(Cl)cn3)nn2)ccc1Cl [Example 28, 5-Chloro-2-[[1-[4-chloro-3-(difluoromethoxy)phenyl]triazol-4-yl]methoxy]pyrimidine] | 0.002 |
| COc1ccnc(OCc2cn(-c3ccc(Cl)c(OC(F)F)c3)nn2)n1 [Example 29, 2-[[1-[4-Chloro-3-(difluoromethoxy)phenyl]triazol-4-yl]methoxy]-4-methoxy-pyrimidine] | 0.011 |
| Cc1ccnc(OCc2cn(-c3ccc(Cl)c(C(F)F)c3)nn2)n1 [Example 30, 2-[[1-[4-Chloro-3-(difluoromethyl)phenyl]triazol-4-yl]methoxy]-4-methyl-pyrimidine] | 0.004 |
| Cc1cnc(OCc2cn(-c3ccc(Cl)c(C(F)F)c3)nn2)nc1 [Example 31, 2-[[1-[4-Chloro-3-(difluoromethyl)phenyl]triazol-4-yl]methoxy]-5-methyl-pyrimidine] | 0.001 |
| CCc1cnc(OCc2cn(-c3ccc(Cl)c(C(F)F)c3)nn2)nc1 [Example 32, 2-[[1-[4-Chloro-3-(difluoromethyl)phenyl]triazol-4-yl]methoxy]-5-ethyl-pyrimidine] | 0.002 |
| Fc1ccc(-n2cc(COc3ncccn3)nn2)cc1OC(F)F [Example 33, 2-[[1-[3-(Difluoromethoxy)-4-fluoro-phenyl]triazol-4-yl]methoxy]pyrimidine] | 0.018 |
| Cc1cnc(OCc2cn(-c3ccc(Cl)c(OC(F)F)c3)nn2)cn1 [Example 34, 2-[[1-[4-Chloro-3-(difluoromethoxy)phenyl]triazol-4-yl]methoxy]-5-methyl-pyrazine] | 0.159 |

| Structure (SMILES) | IC50 [µM] |
| --- | --- |
| FC(F)Oc1cnc(OCc2cn(-c3ccc(Cl)c(OC(F)F)c3)nn2)nc1 [Example 35, 2-[[1-[4-Chloro-3-(difluoromethoxy)phenyl]triazol-4-yl]methoxy]-5-(difluoromethoxy)pyrimidine] | 0.006 |
| Fc1ccc(-n2cc(CNc3ncccn3)nn2)cc1OC(F)F [Example 36, N-[[1-[3-(Difluoromethoxy)-4-fluoro-phenyl]triazol-4-yl]methyl]pyrimidin-2-amine] | 0.351 |
| Cc1c(F)ccc(-n2cc(COc3ncc(Cl)cn3)nn2)c1F [Example 37, 5-Chloro-2-[[1-(2,4-difluoro-3-methyl-phenyl)triazol-4-yl]methoxy]pyrimidine] | 0.053 |
| Cc1cnc(OCc2cn(-c3ccc(F)c(C)c3F)nn2)nc1 [Example 38, 2-[[1-(2,4-Difluoro-3-methyl-phenyl)triazol-4-yl]methoxy]-5-methyl-pyrimidine] | 0.027 |
| CCc1cnc(OCc2cn(-c3ccc(F)c(C)c3F)nn2)nc1 [Example 39, 2-[[1-(2,4-Difluoro-3-methyl-phenyl)triazol-4-yl]methoxy]-5-ethyl-pyrimidine] | 0.015 |
| CCc1cnc(OCc2cn(-c3ccc(F)c(Br)c3)nn2)nc1 [Example 40, 2-[[1-(3-Bromo-4-fluoro-phenyl)triazol-4-yl]methoxy]-5-ethyl-pyrimidine] | 0.001 |
| Fc1ccc(-n2cc(COc3ncc(Cl)cn3)nn2)cc1Br [Example 42, 2-((1-(3-bromo-4-fluorophenyl)-1H-1,2,3-triazol-4-yl)methoxy)-5-chloropyrimidine] | 0.003 |
| CC(C)c1cnc(OCc2cn(-c3ccc(F)c(Br)c3)nn2)nc1 [Example 43, 2-[[1-(3-Bromo-4-fluoro-phenyl)triazol-4-yl]methoxy]-5-isopropylpyrimidine] | 0.005 |
| Fc1ccc(-n2cc(COc3ncc(C(F)(F)F)cn3)nn2)cc1Br [Example 44, 2-[[1-(3-Bromo-4-fluoro-phenyl)triazol-4-yl]methoxy]-5-(trifluoromethyl)pyrimidine] | 0.005 |
| FC(F)c1cc(-n2cc(COc3ncc(C(F)(F)F)cn3)nn2)ccc1Cl [Example 45, 2-[[1-[4-Chloro-3-(difluoromethyl)phenyl]triazol-4-yl]methoxy]-5-(trifluoromethyl)pyrimidine] | 0.004 |
| COc1cnc(OCc2cn(-c3ccc(Cl)c(C(F)F)c3)nn2)nc1 [Example 46, 2-[[1-[4-Chloro-3-(difluoromethyl)phenyl]triazol-4-yl]methoxy]-5-methoxy-pyrimidine] | 0.001 |
| FC(F)c1cc(-n2cc(COc3ncc(Cl)cn3)nn2)ccc1Cl [Example 47, 5-Chloro-2-[[1-[4-chloro-3-(difluoromethyl)phenyl]triazol-4-yl]methoxy]pyrimidine] | 0.003 |
| CC(C)c1cnc(OCc2cn(-c3ccc(Cl)c(C(F)F)c3)nn2)nc1 [Example 48, 2-[[1-[4-Chloro-3-(difluoromethyl)phenyl]triazol-4-yl]methoxy]-5-isopropyl-pyrimidine] | 0.008 |
| Fc1ccc(-n2cc(COc3ncc(Cl)cn3)nn2)cc1C(F)F [Example 49, 5-Chloro-2-[[1-[3-(difluoromethyl)-4-fluoro-phenyl]triazol-4-yl]methoxy]pyrimidine] | 0.003 |
| Fc1ccc(-n2cc(COc3ncc(C(F)(F)F)cn3)nn2)cc1C(F)F [Example 50, 2-[[1-[3-(Difluoromethyl)-4-fluoro-phenyl]triazol-4-yl]methoxy]-5-(trifluoromethyl)pyrimidine] | 0.007 |
| Cc1cnc(OCc2cn(-c3ccc(F)c(C(F)F)c3)nn2)nc1 [Example 51, 2-[[1-[3-(Difluoromethyl)-4-fluoro-phenyl]triazol-4-yl]methoxy]-5-methyl-pyrimidine] | 0.001 |
| Cc1ccnc(OCc2cn(-c3ccc(F)c(C(F)F)c3)nn2)n1 [Example 52, 2-[[1-[3-(Difluoromethyl)-4-fluoro-phenyl]triazol-4-yl]methoxy]-4-methyl-pyrimidine] | 0.008 |
| Fc1ccc(-n2cc(COc3ncc(Cl)cn3)nn2)cc1OC(F)F [Example 61, 5-Chloro-2-[[1-[3-(difluoromethoxy)-4-fluoro-phenyl]triazol-4-yl]methoxy]pyrimidine] | 0.003 |
| Fc1ccc(-n2cc(COc3ncc(C(F)(F)F)cn3)nn2)cc1OC(F)F [Example 62, 2-[[1-[3-(Difluoromethoxy)-4-fluoro-phenyl]triazol-4-yl]methoxy]-5-(trifluoromethyl)pyrimidine] | 0.007 |
